# Source: US10450356B2, “PRAME derived peptides and immunogenic compositions comprising these” (Academisch Ziekenhuis Leiden H.O.D.N. LUMC, priority 2007, dated 2019)
# Target: T1, 20S proteasomes purified from a B-LCL cell line (immunoproteasomes) (Homo sapiens, UniProt P28062+P28065+P40306)
# T1 construct: 20S proteasomes were purified from a B-LCL cell line; endogenous in cells; purified after Groettrup et al. 1995
# Assay: In vitro proteasome mediated cleavage analysis
# Assay type: biochemical
# Set-up: key to Intact in fragment / Intact Fragment: intact epitope found in digestion fragments: (+), present; (-), not present; key to Processing C-term: generation by proteasome-mediated digestion of fragments containing the correct C-terminus: (++) fragments present for >5%; (+) present for <5%; (-) no fragments containing the C-term. were found
# Settings: for Processing C-term: generation by proteasome-mediated digestion of fragments containing the correct C-terminus: 1 h digestion; for Intact Fragment: intact epitope found in digestion fragments: after 1 h digestion; for C-term. generation: generation of C-terminus of the epitope after 1 h digestion; for Intact in fragment: intact epitope found in digestion fragments after 1 h digestion
# Method: 20S proteasomes were purified from a B-LCL cell line as described by Groettrup et al. (J. Biol. Chem. 270:23808-23815; 1995). This cell type is known to contain immunoproteasomes. High LMP2 and 7 content was confirmed by 2-D immuno-blotting. To assess kinetics, digestions were performed with different incubation periods. Peptides (27 mers, 20 μg) were incubated with 1 μg of purified proteasome at 37° C. for 1 h, 4 h and 24 h in 300 μl proteasome digestion buffer as described (Eggers, et al. 1995. J. Exp. Med. 182:1865). Trifluoroacetic acid was added to stop the digestion and samples were stored at −20° C. before mass spectrometric analysis.
# Electrospray ionization mass spectrometry was performed on a hybrid quadrupole time-of-flight mass spectrometer, a Q-TOF (Micromass), equipped with an on-line nanoelectrospray interface with an approximate flow rate of 250 nL/min. Injections were done with a dedicated micro/nano HPLC autosampler, the FAMOS (LC Packings). Digestion solutions were diluted five times in water-methanol-acetic acid (95:5:1, v/v/v), and trapped on the precolumn (MCA-300-05-C8; LC Packings) in water-methanol-acetic acid (95:5:1, v/v/v). Washing of the precolumn was done for 3 min to remove the buffers present in the digests. Subsequently, the trapped analytes were eluted with a steep gradient going from 70% B to 90% B in 10 min, with a flow of 250 nl/min (A: water-methanol-acetic acid (95:5:1, v/v/v); B: water-methanol-acetic acid (10:90:1, v/v/v)). This low elution rate allows for a few additional MS/MS experiments if necessary during the same elution. Mass spectra were recorded from mass 50-2000 Da every second. The resolution allows direct determination of the monoisotopic mass, also from multiple charged ions. The peaks in the mass spectrum were searched in the digested precursor peptide using the Biolynx/proteins software (Micromass). The intensity of the peaks in the mass spectra was used to establish the relative amounts of peptides generated by proteasome digestion.
Processing C-term: generation by proteasome-mediated digestion of fragments containing the correct C-terminus,Intact Fragment: intact epitope found in digestion fragments,C-term. generation,Intact in fragment,SMILES
+ ((+) present for <5%),+,+ (low abundant (+) present for <5%),+,CC(C)C[C@H](NC(=O)[C@@H](NC(=O)[C@H](CCC(N)=O)NC(=O)[C@H](CO)NC(=O)[C@H](Cc1c[nH]cn1)NC(=O)[C@H](CCCNC(=N)N)NC(=O)CNC(=O)[C@H](CC(=O)O)NC(=O)[C@H](Cc1ccccc1)NC(=O)[C@H](C)N)[C@@H](C)O)C(=O)O
-,-,,,CC[C@H](C)[C@H](NC(=O)[C@H](C)N)C(=O)N[C@@H](C)C(=O)N[C@@H](C)C(=O)N[C@@H](CC(C)C)C(=O)N[C@@H](CCC(=O)O)C(=O)N[C@@H](CC(C)C)C(=O)N[C@@H](CC(C)C)C(=O)N1CCC[C@H]1C(=O)N[C@@H](CCCNC(=N)N)C(=O)O
-,-,,,CC[C@H](C)[C@H](NC(=O)[C@H](C)NC(=O)[C@H](CC(C)C)NC(=O)[C@H](C)N)C(=O)N[C@@H](C)C(=O)N[C@@H](C)C(=O)N[C@@H](CC(C)C)C(=O)N[C@@H](CCC(=O)O)C(=O)N[C@@H](CC(C)C)C(=O)O
-,-,,,CC[C@H](C)[C@H](NC(=O)[C@H](C)NC(=O)[C@H](CC(C)C)NC(=O)[C@H](C)N)C(=O)N[C@@H](C)C(=O)N[C@@H](C)C(=O)N[C@@H](CC(C)C)C(=O)N[C@@H](CCC(=O)O)C(=O)N[C@@H](CC(C)C)C(=O)N[C@@H](CC(C)C)C(=O)O
-,-,,,CSCC[C@H](NC(=O)[C@H](C)N)C(=O)N[C@H](C(=O)N[C@@H](CCC(N)=O)C(=O)N[C@@H](C)C(=O)N[C@@H](Cc1c[nH]c2ccccc12)C(=O)N1CCC[C@H]1C(=O)N[C@@H](Cc1ccccc1)C(=O)N[C@H](C(=O)N[C@@H](CS)C(=O)O)[C@@H](C)O)C(C)C
-,-,,,C[C@@H](O)[C@H](NC(=O)[C@H](CCCNC(=N)N)NC(=O)[C@H](CC(=O)O)NC(=O)CNC(=O)[C@H](CS)NC(=O)[C@H](Cc1c[nH]cn1)NC(=O)[C@@H]1CCCN1C(=O)[C@@H](N)CS)C(=O)N[C@@H](Cc1ccccc1)C(=O)N[C@@H](Cc1ccc(O)cc1)C(=O)O
-,-,,,CC(C)C[C@H](NC(=O)[C@H](CC(C)C)NC(=O)[C@H](CO)NC(=O)[C@H](CCC(N)=O)NC(=O)CNC(=O)[C@H](C)NC(=O)[C@H](CC(C)C)NC(=O)[C@@H](N)CCC(=O)O)C(=O)N[C@@H](CCCCN)C(=O)O
-,-,,,CC(C)C[C@H](NC(=O)[C@H](Cc1c[nH]cn1)NC(=O)[C@H](CC(C)C)NC(=O)[C@@H](N)Cc1c[nH]cn1)C(=O)N[C@@H](CCC(=O)O)C(=O)N[C@H](C(=O)N[C@@H](Cc1ccccc1)C(=O)N[C@@H](CCCCN)C(=O)N[C@@H](C)C(=O)O)[C@@H](C)O
++ ((++) fragments present for >5%),,++ (abundant (++) present for >5%),,CSCC[C@H](NC(=O)[C@H](Cc1ccccc1)NC(=O)[C@H](CC(C)C)NC(=O)[C@@H]1CCCN1C(=O)[C@@H]1CCCN1C(=O)[C@H](Cc1ccccc1)NC(=O)[C@@H](N)CC(C)C)C(=O)N[C@@H](C)C(=O)N[C@@H](C)C(=O)N[C@@H](Cc1ccccc1)C(=O)O
-,-,,,CSCC[C@H](NC(=O)[C@H](CO)NC(=O)[C@@H]1CCCN1C(=O)[C@H](CCCNC(=N)N)NC(=O)CNC(=O)[C@H](CC(C)C)NC(=O)[C@H](CCC(=O)O)NC(=O)[C@H](CS)NC(=O)[C@H](CC(C)C)NC(=O)[C@@H](N)CC(C)C)C(=O)O
++ ((++) fragments present for >5%),+,++ (abundant (++) present for >5%),+,CC[C@H](C)[C@H](NC(=O)[C@H](C)NC(=O)[C@H](CC(C)C)NC(=O)[C@H](C)NC(=O)[C@H](CCC(=O)O)NC(=O)[C@H](CC(=O)O)NC(=O)[C@H](CCCCN)NC(=O)[C@H](CC(C)C)NC(=O)[C@@H](N)CC(C)C)C(=O)O
++ ((++) fragments present for >5%),+,++ (abundant (++) present for >5%),+,CC(C)C[C@H](NC(=O)[C@@H](NC(=O)CNC(=O)[C@H](CC(C)C)NC(=O)[C@@H]1CCCN1C(=O)[C@H](CC(C)C)NC(=O)[C@H](CS)NC(=O)[C@@H](NC(=O)[C@H](Cc1ccccc1)NC(=O)[C@@H]1CCCN1)[C@@H](C)O)C(C)C)C(=O)O
-,-,,,CC(C)C[C@H](NC(=O)[C@H](CCC(=O)O)NC(=O)[C@H](CS)NC(=O)[C@H](CC(C)C)NC(=O)[C@H](CC(C)C)NC(=O)[C@H](CCC(=O)O)NC(=O)[C@H](CCCNC(=N)N)NC(=O)[C@H](CC(C)C)NC(=O)[C@@H](N)CCCNC(=N)N)C(=O)O
-,-,,,CC(C)C[C@H](NC(=O)[C@H](CO)NC(=O)[C@H](CCC(N)=O)NC(=O)CNC(=O)[C@H](C)NC(=O)[C@H](CC(C)C)NC(=O)[C@H](CCC(=O)O)NC(=O)[C@@H](NC(=O)[C@H](CC(C)C)NC(=O)[C@@H](N)CCCNC(=N)N)C(C)C)C(=O)O
++ ((++) fragments present for >5%),+,++ (abundant (++) present for >5%),+,CC[C@H](C)[C@H](NC(=O)[C@H](C)NC(=O)[C@H](CC(C)C)NC(=O)[C@H](C)NC(=O)[C@H](CCC(=O)O)NC(=O)[C@H](CC(=O)O)NC(=O)[C@H](CCCCN)NC(=O)[C@H](CC(C)C)NC(=O)[C@H](CC(C)C)NC(=O)[C@@H](N)CO)C(=O)O
-,-,,,CC(C)C[C@H](NC(=O)CNC(=O)[C@H](CC(=O)O)NC(=O)[C@H](CC(C)C)NC(=O)[C@@H](NC(=O)[C@H](C)NC(=O)[C@H](CCCCN)NC(=O)[C@H](Cc1ccccc1)NC(=O)[C@@H](N)[C@@H](C)O)C(C)C)C(=O)O
-,-,,,CC[C@H](C)[C@H](NC(=O)[C@@H]1CCCN1C(=O)[C@H](CCC(=O)O)NC(=O)[C@@H]1CCCN1C(=O)[C@H](CC(=O)O)NC(=O)[C@H](Cc1ccc(O)cc1)NC(=O)[C@H](Cc1ccccc1)NC(=O)[C@@H](N)[C@@H](C)O)C(=O)N[C@@H](CC(C)C)C(=O)O
-,-,,,CSCC[C@H](NC(=O)[C@H](CC(C)C)NC(=O)[C@@H](N)C(C)C)C(=O)N[C@@H](CCCCN)C(=O)NCC(=O)N[C@@H](CCC(N)=O)C(=O)N[C@@H](Cc1c[nH]cn1)C(=O)N[C@@H](CC(C)C)C(=O)N[C@@H](Cc1c[nH]cn1)C(=O)N[C@@H](CC(C)C)C(=O)O
+ ((+) present for <5%),+,+ (low abundant (+) present for <5%),+,CC(C)C[C@H](NC(=O)[C@H](CC(C)C)NC(=O)[C@H](CCC(=O)O)NC(=O)[C@H](CCCNC(=N)N)NC(=O)[C@H](CC(C)C)NC(=O)[C@H](CCCNC(=N)N)NC(=O)[C@H](C)NC(=O)[C@H](Cc1c[nH]cn1)NC(=O)[C@H](CC(C)C)NC(=O)[C@@H](N)Cc1ccc(O)cc1)C(=O)O
